Data taken from US20090257999A1, “Method of preventing contrast-induced nephropathy” (Inotek Pharmaceuticals Corporation, priority 2007, published 2009).

Tests used:
Format in all cases: in vivo, rat
[1] = tested on: diabetic rats; experiment: CIN animal model, Example 1: plasma urea and creatinine (glomerular dysfunction)
Procedure: Male Wistar rats (150-200 g; Harlan Nossanr) were housed in a controlled environment and provided with standard rodent chow and water.
After 12 hours of fasting, the animals received a single 60 mg/kg intravenous (i.v.) injection of streptozotocin (Sigma, St. Louis, Mo.) in 10 mM sodium citrate buffer, pH 4.5 (see figure showing CIN model). Control non-diabetic animals were fasted and received citrate buffer alone. After 24 hours, animals with blood glucose levels greater than 250 mg/dl were considered diabetic. All experiments were performed 10 days following the induction of diabetes. The diabetic state was evaluated daily by determination of the blood glucose levels. Upon the induction of the diabetic state the animals were presenting with a major risk factor pre-disposing the animals to CIN after the administration of contrast media.
Ten days following the induction of diabetes the rats were anesthetized with 90 mg/kg ketamine i.m. and 10 mg/kg xylazine i.m. and were treated with the contrast agent iomeprol (10 mL/kg injected via the lateral tail vein) or with 0.9% normal saline. The contrast agent used was the low osmolar non-ionic monomer iomeprol (Iomeron, 400 mgI mL-1; Bracco SpA, Milan, Italy) with an osmolality of 726±34 mosmol/kg H2O. Upon completion of surgical procedures, the animals were randomly allocated to eleven different experimental groups as tabulated below:
(§1) Experimental model for assessing the effects of Metalloporphyrin A on CIN: Diabetic (n=8) for group #'s 1-9 or wild-type rats (n=10) for group #'s 10 and 11 were treated with drug 60 min prior to contrast agent administration. At the “0” time point, Iomeprol was administered with ensuing drug intervention dosing every 12 hours for Metalloporphyrin A from 24-84 hours or every 24 hours for NAC from 24-72 hours. At the 96 hour time point, kidneys were harvested for histopathology, MPO and MDA measurements. From 0-96 hours, plasma samples from all animals per group were screened for urea, creatinine, fractional excretion of Na^+ and NGAL.
At the indicated time point blood samples were collected via the lateral tail vein into S1/3 tubes containing serum gel. The samples were centrifuged (6000 r.p.m. for 3 min) to separate plasma. All plasma samples were analyzed for biochemical parameters within 24 hours of collection. Plasma concentrations of urea and creatinine were measured as indicators of impaired glomerular function. Urine samples were collected at 96 hour after contrast agent administration and the volume of urine produced was recorded. Urine concentrations of Na^+ were measured and were used in conjunction with plasma Na^+ concentrations to calculate fractional excretion of Na^+ (FENa) using standard formulae, which was used as an indicator of tubular function.

[2] = tested on: diabetic rats; experiment: Histologic evaluation of kidney outer medulla damage, Example 1; conditions: at 96 hours
Procedure: as §1
At postmortem, a […] section of kidney was removed and placed in formalin and processed through to wax. […] sections were cut and stained with hematoxylin and eosin. Histologic assessment of tubular necrosis was determined semi-quantitatively using a method modified from McWhinnie et al, Transplantation. 42(4):352-81986, 1986.
Histologic assessment of outer medulla damage was examined by an experienced morphologist, who was not aware of the sample identity. […]

[3] = tested on: Neutrophil gelatinase-associated lipocalin (NGAL); experiment: Plasma NGAL by ELISA, Example 1; conditions: diabetic rats + i.v. Iomeprol; Metalloporphyrin A 1 mg/kg or NAC 10 mg/kg; versus drug placebo; readings 0-96 hours
Procedure: as §1
Neutrophil gelatinase-associated lipocalin (NGAL) has recently been proposed as a real-time indicator of active kidney damage by Mori, K., Nakao, K., Kidney International (2007) 71, 967-970. The plasma from 5 different diabetic animals per experimental group were taken for measurement of NGAL by ELISA as outlined below:
1) For diabetic rats without contrast agent, non-diluted plasma was used. For diabetic rats with contrast agent, plasma samples were diluted 1:400 with saline prior to use.
100 microliter diluted/non-diluted plasma samples or recombinant NGAL protein (25-1000 ng/ml) were added to pre-coated ELISA plates containing a monoclonal antibody raised against NGAL. […]
5) Plates were read at an absorbance of 450 nm.

[4] = tested on: ICAM-1, Nitrotyrosine and PAR expression; experiment: Immunohistochemical localization of ICAM-1, nitrotyrosine and poly(ADP-ribose) in kidney, Example 1; conditions: diabetic rats + Iomeprol; metalloporphyrin A 1 mg/kg 60 min prior to Iomeprol, or NAC 10 mg/kg
Procedure: as §1
Rat kidneys fixed in 10% (wt/vol) neutral buffered paraformaldehyde and […] sections were prepared from paraffin-embedded tissues. After deparaffination, endogenous peroxidase was quenched using 0.3% (vol/vol) H2O2 in 60% methanol for 30 minutes. The sections were permeabilized using 0.1% (wt/vol) Triton X-100 in phosphate-buffered saline (PBS; 0.01 mol/L, pH 7.4) for 20 minutes. Nonspecific adsorption was minimized by incubating sections in 2% (vol/vol) normal goat serum in PBS for 20 minutes. Endogenous avidin- and biotin-binding sites were blocked by sequential incubation for 15 minutes with avidin (DBA, Milan, Italy) and biotin (DBA, Milan, Italy), respectively. The sections were then incubated overnight with primary antinitrotyrosine antibody (1:1000), anti-PAR antibody (1:500) and anti-ICAM-1 antibody (1:500). Separate sections were also incubated with control solutions consisting of PBS alone or a 1:500 dilution of nonspecific purified rabbit IgG (DBA). Specific labeling was detected using a biotin-conjugated goat antirabbit IgG (DBA) and avidin-biotin peroxidase (DBA). Samples were then viewed under a light microscope.

[5] = diabetic rats + i.v. Iomeprol 10 ml/kg, Metalloporphyrin A 1000 μg/kg or NAC 10 mg/kg i.p., at 48, 72 and 96 hours
[6] = diabetic rats + i.v. saline (no contrast agent), NAC 10 mg/kg i.p., at 72 and 96 hours

## CC(=O)N[C@@H](CS)C(=O)O [NAC, N-acetylcysteine]
[1]; [5]
  plasma creatinine concentration: reductions
  plasma urea concentration: reductions
[1]; [6]
  plasma creatinine concentration: significantly reduced the increase
  plasma urea concentration: significantly reduced the increase
[2]; diabetic rats + i.v. Iomeprol, Metalloporphyrin A 30-1000 μg/kg or NAC 10 mg/kg i.p.
  kidney injury (histological score): significant reductions
[2]; diabetic rats + i.v. saline (no contrast agent), Metalloporphyrin A 1000 μg/kg or NAC 10 mg/kg i.p.
  kidney injury (histological score): significantly reduced
[3]
  plasma NGAL levels: significantly lower
[4]
  ICAM-1 staining/expression in kidney medulla: afforded protection
  Nitrotyrosine staining/expression in kidney medulla: afforded protection
  PAR staining/expression in kidney medulla: afforded protection
